From PMC12152147, “DDB1 engagement defines the selectivity of S656 analogs for cyclin K degradation over CDK inhibition” (EMBO Reports, 2025)
pIC50: −log10 of the molar value. Like-named read-outs stand apart in the source and are kept apart here.

What was measured:
[1] = tested on: OCI-AML5 cells expressing shRNA targeting CUL4A or CUL4B; assay: Dose response in OCI-AML5 expressing shRNAs targeting CUL4A, CUL4B or control; format: cell-based, H. sapiens; conditions: ratio of IC50 in shCUL4A vs shCTRL OCI-AML5 cells
OCI-AML5 cells = assay: Dose-response proliferative assay in OCI-AML5 (4 days, CellTiterGlo); format: cell-based, H. sapiens; conditions: Homo sapiens
Protocol: Cell lines were purchased from the ATCC or donated from collaborators. OCI-AML5 cell line was cultured in αMEM, 10% heat-inactivated FBS supplemented with 10 ng/mL GM-CSF, OCI-AML1, U2OS and HEK293T cell lines in DMEM, 10% heat-inactivated FBS. Cells were maintained at 37 °C in 5% CO2 atmosphere.
Dose-response assays in primary AML specimens were performed as in chemical screen (see above) with the exception that compounds were tested in serial dilution (8 dilutions, 1:4, 10 μM down to 0.5 nM). Dose-response assays in OCI-AML5 cell line were conducted similarly with the following modifications: 300 cells per well were seeded in 50 μL of cell line media and cell viability was evaluated after 4 days in culture.

[2] = tested on: OCI-AML5 cells expressing shRNAs targeting CDK1, 2, 4, 7, 9, cyclin K; assay: Dose response in OCI-AML5 expressing shRNAs targeting CDK1, 2, 4, 7, 9, cyclin K or control; format: cell-based, H. sapiens; conditions: for Class: class from shRNA IC50 profile and cyclin K-eGFP degradation
CDK9/CyclinT = target: T1, CDK9/CyclinT (Homo sapiens, UniProt P50750); assay: CDK9/CyclinT in vitro kinase activity, single concentration 1 μM; format: biochemical; conditions: single concentration 1 μM
T1 construct: purchased BPS Bioscience 79628
T1 sequence (P50750 whole entry): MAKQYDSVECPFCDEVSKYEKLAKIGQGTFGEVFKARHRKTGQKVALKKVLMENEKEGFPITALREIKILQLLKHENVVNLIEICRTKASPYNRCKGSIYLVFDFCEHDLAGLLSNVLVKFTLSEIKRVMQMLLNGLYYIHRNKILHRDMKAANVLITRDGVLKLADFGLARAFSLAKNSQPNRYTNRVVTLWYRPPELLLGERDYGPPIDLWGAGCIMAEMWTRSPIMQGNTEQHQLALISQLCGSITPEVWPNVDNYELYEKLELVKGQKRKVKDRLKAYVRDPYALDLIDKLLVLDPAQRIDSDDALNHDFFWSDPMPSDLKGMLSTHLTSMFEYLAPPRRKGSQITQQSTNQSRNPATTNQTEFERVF
T1 sequence (O60563 whole entry partner): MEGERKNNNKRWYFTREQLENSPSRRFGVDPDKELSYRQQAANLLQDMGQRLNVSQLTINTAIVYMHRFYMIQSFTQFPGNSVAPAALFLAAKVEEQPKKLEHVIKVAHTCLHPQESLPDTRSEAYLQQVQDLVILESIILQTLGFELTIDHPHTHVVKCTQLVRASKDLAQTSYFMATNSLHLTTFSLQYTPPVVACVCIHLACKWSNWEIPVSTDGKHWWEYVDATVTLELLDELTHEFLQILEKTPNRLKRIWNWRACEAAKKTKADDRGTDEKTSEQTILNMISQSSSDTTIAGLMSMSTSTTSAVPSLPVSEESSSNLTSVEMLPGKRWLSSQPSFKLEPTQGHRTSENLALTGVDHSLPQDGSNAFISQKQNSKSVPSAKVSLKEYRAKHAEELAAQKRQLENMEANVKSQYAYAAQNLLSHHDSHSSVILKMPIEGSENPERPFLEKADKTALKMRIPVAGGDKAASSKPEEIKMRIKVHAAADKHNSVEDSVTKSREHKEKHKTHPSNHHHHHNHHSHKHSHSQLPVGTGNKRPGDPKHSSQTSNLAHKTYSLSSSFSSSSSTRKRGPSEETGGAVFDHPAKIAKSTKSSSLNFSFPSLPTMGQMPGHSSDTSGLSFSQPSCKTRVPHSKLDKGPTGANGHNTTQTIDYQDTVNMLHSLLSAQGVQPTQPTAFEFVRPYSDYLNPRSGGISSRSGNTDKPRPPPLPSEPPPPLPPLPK
Protocol: Kinase activity was assessed using the kinase assay kits from BPS Bioscience for CDK1, CDK9 and CDK12 with Kinase Glo MAX in duplicates. Compounds were tested at a single concentration of 1 μM for CDK1 and CDK9 activity, and in a dilution ranging from 0.64 nM to 50 μM for CDK12 activity. Chemiluminescence was read using the Neo Synergy BioTek plate reader.

cyclin KeGFP = assay: Cyclin KeGFP reporter system (eGFP/mCherry MFI by flow cytometry);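 as to % degradation cyclin K-eGFP: 10 μM compound for 3 h relative to DMSO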; format: cell-based, H. sapiens; conditions: for % degradation cyclin K-eGFP: cyclin K-eGFP reporter
Protocol: We used the cyclin KeGFP reporter system previously described (Słabicki et al, [2020]). Lentiviral vector (Addgene plasmid #169930) was used to infect OCI-AML5 at a MOI of 5 and were selected with puromycin. Cells were seeded in methylcellulose and let grown as colonies for 10 days. Colonies were isolated, expanded and selected based on cyclin KeGFP fluorescence in presence and absence of cyclin K degrader molecules. Selected G7 clone was used for all reported experiments. Fluorescent signal of cyclin KeGFP and mCherry were quantified by flow cytometry (BD LSRII) in each condition and the geometric mean fluorescence intensity (MFI) were calculated using FlowJo (BD Biosciences). The ratio of eGFP to mCherry was normalized to DMSO-treated cells.

[3] = OCI-AML-5, OCI-AML5 cells, read-out: IC50 in AML5
[4] = Homo sapiens, OCI-AML-5, OCI-AML5 expressing shRNA CCNK (cyclin K), read-out: IC50 shRNA CCNK
[5] = Homo sapiens, OCI-AML-5, OCI-AML5 expressing shRNA CDK1, read-out: IC50 shRNA CDK1
[6] = Homo sapiens, OCI-AML-5, OCI-AML5 expressing shRNA CDK2, read-out: IC50 shRNA CDK2
[7] = Homo sapiens, OCI-AML-5, OCI-AML5 expressing shRNA CDK4, read-out: IC50 shRNA CDK4
[8] = Homo sapiens, OCI-AML-5, OCI-AML5 expressing shRNA CDK7, read-out: IC50 shRNA CDK7
[9] = Homo sapiens, OCI-AML-5, OCI-AML5 expressing shRNA CDK9, read-out: IC50 shRNA CDK9
[10] = OCI-AML5 expressing shRNA CCNK (cyclin K), read-out: IC50 shRNA CCNK
[11] = OCI-AML5 expressing shRNA CDK1, read-out: IC50 shRNA CDK1
[12] = OCI-AML5 expressing shRNA CDK2, read-out: IC50 shRNA CDK2
[13] = OCI-AML5 expressing shRNA CDK4, read-out: IC50 shRNA CDK4
[14] = OCI-AML5 expressing shRNA CDK7, read-out: IC50 shRNA CDK7
[15] = OCI-AML5 expressing shRNA CDK9, read-out: IC50 shRNA CDK9

| Structure (SMILES) | pIC50 (OCI-AML5 cells; [3]) | pIC50 [2, 4] | pIC50 [2, 5] | pIC50 [2, 6] | pIC50 [2, 7] | pIC50 [2, 8] | pIC50 [2, 9] | inhibition at 1 µM (CDK9/CyclinT) [%] | pIC50 [2, 10] | pIC50 [2, 11] | pIC50 [2, 12] | pIC50 [2, 13] | pIC50 [2, 14] | pIC50 [2, 15] | % CDK9 inhibition (CDK9/CyclinT) [%] | Ratio shCUL4A/shCTRL [1] | Class [2] | % degradation cyclin K-eGFP (cyclin KeGFP) [%] | activity after alteration of the aminothiazole core / bulky replacement [2] | further results |
| --- | --- | --- | --- | --- | --- | --- | --- | --- | --- | --- | --- | --- | --- | --- | --- | --- | --- | --- | --- | --- |
| Cn1cc(CC(=O)Nc2ncc(SCc3cccnc3)s2)c2ccccc21 [UOM-005228] | 5.39 | 5.27 | 5.64 | 5.34 | 5.36 | 5.38 | 5.49 | 51 | – | – | – | – | – | – | – | 0.81 | 2 | 23 | – | – |
| CN(C)c1ccc(C(=O)Nc2ncc(SCc3cccnc3)s2)cc1 [UOM-005845] | – | – | – | – | – | – | – | – | – | – | – | – | – | – | – | – | – | – | – | pIC50 (OCI-AML5 cells; OCI-AML-5, 96 h, 4 days incubation, read-out: IC50 OCI-AML5): 5.71; % cyclin KeGFP degradation (cyclin KeGFP; 3 h, 10 μM, compared to DMSO, OCI-AML5 G7 clone): 0% |
| Cc1csc(NC(=O)Cc2ccc(N(C)C)cc2)n1 [UOM-005598] | – | – | – | – | – | – | – | – | < 5.00 | < 5.00 | < 5.00 | < 5.00 | < 5.00 | < 5.00 | 0 | – | inactive | 1 | neither bind to CDKs, nor degrade Cyclin K | – |
| O=C(Cc1ccc(NC(=O)c2ccccn2)cc1)Nc1ncc(SCc2cccnc2)s1 [UOM-005474] | 5.91 | 6.00 | 6.12 | 6.03 | 5.97 | 6.02 | 6.26 | 59 | – | – | – | – | – | – | – | 1.03 | 2 | 5 | – | – |
| O=C(Cc1ccc(N2CCCCC2)cc1)Nc1ncc(SCc2cccnc2)s1 [UOM-005607] | 5.73 | 6.06 | 6.10 | 5.52 | 5.66 | 5.69 | 6.04 | 90 | – | – | – | – | – | – | – | 0.9 | mixed 1-2 | 30 | – | – |
| CC(=O)Nc1ncc(SCc2cccnc2)s1 [UOM-005188] | – | – | – | – | – | – | – | – | < 5.00 | 5.53 | < 5.00 | < 5.00 | < 5.00 | < 5.00 | 1 | – | 2 | 6 | – | – |
| CN(C)c1ccc(CC(=O)Nc2nncs2)cc1 [UOM-005601] | – | – | – | – | – | – | – | – | < 5.00 | < 5.00 | < 5.00 | < 5.00 | < 5.00 | < 5.00 | 0 | – | inactive | 1 | loss of binding of the compounds to CDK | – |
| CN(C)c1ccc(CC(=O)Nc2nc3ccccc3s2)cc1 [UOM-005600] | – | – | – | – | – | – | – | – | < 5.00 | < 5.00 | < 5.00 | < 5.00 | < 5.00 | < 5.00 | 10 | – | inactive | 29 | neither bind to CDKs, nor degrade Cyclin K | – |
| Cc1nnc(NC(=O)Cc2ccc(N(C)C)cc2)s1 [UOM-005596] | – | – | – | – | – | – | – | – | < 5.00 | < 5.00 | < 5.00 | < 5.00 | < 5.00 | < 5.00 | 0 | – | inactive | 0 | loss of binding of the compounds to CDK | – |
| CN(C)c1ccc(CC(=O)Nc2nnc(SCc3cccnc3)s2)cc1 [UOM-005628] | < 5.00 | < 5.00 | < 5.00 | < 5.00 | < 5.00 | < 5.00 | < 5.00 | 0 | – | – | – | – | – | – | – | – | inactive | 0 | loss of binding of the compounds to CDK | – |

The next lines start with results.

| pIC50 (OCI-AML5 cells; [3]) | pIC50 [2, 4] | pIC50 [2, 5] | pIC50 [2, 6] | pIC50 [2, 7] | pIC50 [2, 8] | pIC50 [2, 9] | inhibition at 1 µM (CDK9/CyclinT) [%] | pIC50 [2, 10] | pIC50 [2, 11] | pIC50 [2, 12] | pIC50 [2, 13] | pIC50 [2, 14] | pIC50 [2, 15] | % CDK9 inhibition (CDK9/CyclinT) [%] | Structure (SMILES) | Ratio shCUL4A/shCTRL [1] | Class [2] | % degradation cyclin K-eGFP (cyclin KeGFP) [%] | activity after alteration of the aminothiazole core / bulky replacement [2] | further results |
| --- | --- | --- | --- | --- | --- | --- | --- | --- | --- | --- | --- | --- | --- | --- | --- | --- | --- | --- | --- | --- |
| < 5.00 | < 5.00 | < 5.00 | < 5.00 | < 5.00 | < 5.00 | < 5.00 | 0 | – | – | – | – | – | – | – | CN(C)c1ccc(CC(=O)Nc2nc3c(s2)CCC3)cc1 [UOM-005599] | – | inactive | 13 | neither bind to CDKs, nor degrade Cyclin K | – |
| < 5.00 | < 5.00 | < 5.00 | < 5.00 | < 5.00 | < 5.00 | < 5.00 | 0 | – | – | – | – | – | – | – | CN(C)c1ccc(CC(=O)Nc2nccs2)cc1 [UOM-005597] | – | inactive | 4 | – | – |
| < 5.00 | < 5.00 | < 5.00 | < 5.00 | < 5.00 | < 5.00 | < 5.00 | 0 | – | – | – | – | – | – | – | CN(C)c1ccc(CC(=O)Nc2nc3ccccc3[nH]2)cc1 [UOM-005603] | – | inactive | 10 | neither bind to CDKs, nor degrade Cyclin K | – |
| 5.35 | 5.16 | 5.45 | 5.08 | 5.28 | 5.09 | 5.39 | 15 | – | – | – | – | – | – | – | O=C(Cc1cc(F)ccc1Br)Nc1ncc(SCc2cccnc2)s1 [UOM-005204] | 1.11 | 2 | 12 | – | – |
| 5.42 | 5.34 | 5.63 | 5.53 | 5.39 | 5.39 | 5.52 | 73 | – | – | – | – | – | – | – | O=C(CC1CCCC1)Nc1ncc(SCc2cccnc2)s1 [UOM-005225] | 1.07 | 2 | 2 | – | – |
| 5.93 | 6.34 | 6.06 | 5.89 | 5.88 | 5.88 | 6.07 | 67 | – | – | – | – | – | – | – | CSc1ccc(CC(=O)Nc2ncc(SCc3cccnc3)s2)cc1 [UOM-005206] | 1.77 | mixed 1-2 | 76 | – | – |
| 5.13 | 5.27 | 5.49 | 5.46 | 5.40 | 5.39 | 5.32 | 73 | – | – | – | – | – | – | – | C=C(C(=O)Nc1ncc(SCc2cccnc2)s1)c1ccc2c(c1)[nH]c1ccc(Cl)cc12 [UOM-005447] | 0.72 | 2 | 63 | – | – |
| – | – | – | – | – | – | – | – | < 5.00 | < 5.00 | < 5.00 | < 5.00 | < 5.00 | < 5.00 | 0 | CN(C)c1ccc(CC(=O)Nc2nc3ccccc3o2)cc1 [UOM-005604] | – | inactive | 8 | neither bind to CDKs, nor degrade Cyclin K | – |
| < 5.00 | < 5.00 | < 5.00 | < 5.00 | < 5.00 | < 5.00 | < 5.00 | 0 | – | – | – | – | – | – | – | COC(=O)c1cnc(NC(=O)Cc2ccc(N(C)C)cc2)s1 [UOM-005602] | – | inactive | 26 | – | – |
